# Biological target: T1, recombinant murine Aurora A enzyme (Mus musculus, UniProt P97477)
# T1 construct: hexahistidine (His6) (N); made in house; host or cells: insect cells, baculovirus (Bac-to-Bac, Invitrogen)
# Test: Aurora A DELFIA Kinase Assay
# Type: biochemical
# Details: mouse Aurora A, 250 μM ATP; threshold less than or equal to 100 nM; read-out: IC50
# From the text: Recombinant mouse Aurora A with an amino-terminus hexahistidine tag (His-Aurora A) was expressed using a standard baculovirus vector and insect cell expression system (Bac-to-Bac®, Invitrogen).
# Soluble, recombinant mouse Aurora A was purified from insect cells using Ni-NTA agarose (Qiagen) as described by the manufacturer and further purified over an S75 size exclusion column (Amersham Pharmacia Biotech).
# Aurora A DELFIA® Kinase Assay
# The enzymatic reaction mixture, with and without Aurora inhibitors, was incubated for 15 minutes at room temperature before termination with 100 μL of stop buffer (1% BSA, 0.05% Surfact-AMPS-20, and 100 mM EDTA). A total of 100 μL of the enzyme reaction mixture was transferred to wells of a Neutravidin-coated 96-well plate (Pierce) and incubated at room temperature for 30 minutes. The wells were washed with wash buffer (25 mM Tris, 150 mM sodium chloride, and 0.1% Tween 20) and incubated for 1 hour with 100 μL of antibody reaction mixture containing 1% BSA, 0.05% Surfact-AMPS-20, anti-phospho-PKA rabbit polyclonal antibody (1:2000, New England Biolabs), and europium labeled anti-rabbit IgG (1:2000, Perkin Elmer). The wells were washed and then the bound europium was liberated using 100 μL of Enhancement Solution (Perkin Elmer). Quantification of europium was done using a Wallac™ EnVision (Perkin Elmer).
# T1 sequence (P97477 whole entry): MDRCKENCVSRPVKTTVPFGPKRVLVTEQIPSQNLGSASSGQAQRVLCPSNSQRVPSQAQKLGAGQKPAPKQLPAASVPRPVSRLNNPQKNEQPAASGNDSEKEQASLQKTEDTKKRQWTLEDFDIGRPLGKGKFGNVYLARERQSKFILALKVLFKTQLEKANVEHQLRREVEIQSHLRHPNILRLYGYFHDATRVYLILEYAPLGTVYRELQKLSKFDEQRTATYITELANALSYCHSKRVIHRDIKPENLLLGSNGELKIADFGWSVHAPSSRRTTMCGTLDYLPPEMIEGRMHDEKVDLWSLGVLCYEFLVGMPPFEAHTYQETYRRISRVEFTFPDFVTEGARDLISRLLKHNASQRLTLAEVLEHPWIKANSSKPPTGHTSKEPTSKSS
row,IC50,SMILES
1,≤ 100 nM,"COc1ccccc1C1=NCc2cnc(Nc3ccc(C(=O)NCCCN4CCN(C)CC4)cc3)nc2-c2ccc(Cl)cc21 [Compound I-22, 4-[9-Chloro-7-(2-methoxy-phenyl)-5H-benzo[c]pyrimido[4,5-e]azepin-2-ylamino]-N-[3-(4-methyl-piperazin-1-yl)-propyl]-benzamide]"
2,≤ 100 nM,"CN(C)C1CN(C(=O)c2ccc(Nc3ncc4c(n3)-c3ccc(Cl)cc3C(c3c(F)cccc3F)=NC4)cc2)C1 [Compound I-180, 9-Chloro-7-(2,6-difluorophenyl)-N-(4-{[3-(dimethylamino)azetidin-1-yl]carbonyl}phenyl)-5H-pyrimido[5,4-d][2]benzazepin-2-amine]"
3,≤ 100 nM,"CNC(=O)C1CN(C(=O)c2ccc(Nc3ncc4c(n3)-c3ccc(Cl)cc3C(c3c(F)cccc3F)=NC4)cc2)CCN1 (stereo not shown) [Compound I-310, 4-(4-{[9-chloro-7-(2,6-difluorophenyl)-5H-pyrimido[5,4-d][2]benzazepin-2-yl]amino}benzoyl)-N-methylpiperazine-2-carboxamide]"
4,≤ 100 nM,"CN(C)C1CN(C(=N)c2ccc(Nc3ncc4c(n3)-c3ccc(Cl)cc3C(c3c(F)cccc3F)=NC4)cc2)C1 [Compound I-267, 9-chloro-7-(2,6-difluorophenyl)-N-{4-[[3-(dimethylamino)azetidin-1-yl](imino)methyl]phenyl}-5H-pyrimido[5,4-d][2]benzazepin-2-amine]"
5,≤ 100 nM,"COc1cccc(F)c1C1=NCc2cnc(Nc3ccc(C(=O)N(C)CCCN)cc3)nc2-c2ccc(Cl)cc21 [Compound I-264, N-(3-aminopropyl)-4-{[9-chloro-7-(2-fluoro-6-methoxyphenyl)-5H-pyrimido[5,4-d][2]benzazepin-2-yl]amino}-N-methylbenzamide]"
6,≤ 100 nM,"CC1CN(C(=O)c2ccc(Nc3ncc4c(n3)-c3ccc(Cl)cc3C(c3ccccc3F)=NC4)cc2Cl)CCN1 (stereo not shown) [Compound I-214, 9-chloro-N-{3-chloro-4-[(3-methylpiperazin-1-yl)carbonyl]phenyl}-7-(2-fluorophenyl)-5H-pyrimido[5,4-d][2]benzazepin-2-amine]"
7,≤ 100 nM,"CNC1CCN(C(=O)c2ccc(Nc3ncc4c(n3)-c3ccc(Cl)cc3C(c3ccccc3F)=NC4)cc2)C1 (stereo not shown) [Compound I-102, {4-[9-Chloro-7-(2-fluoro-phenyl)-5H-benzo[c]pyrimido[4,5-e]azepin-2-ylamino]-phenyl}-(3-methylamino-pyrrolidin-1-yl)-methanone]"
8,≤ 100 nM,"NC1CN(C(=O)c2ccc(Nc3ncc4c(n3)-c3ccc(Cl)cc3C(c3ccccc3F)=NC4)cc2)C1 [Compound I-192, (3-Amino-azetidin-1-yl)-{4-[9-chloro-7-(2-fluoro-phenyl)-5H-benzo[c]pyrimido[4,5-e]azepin-2-ylamino]-phenyl}-methanone]"
9,≤ 100 nM,"CN1CCN(C(=O)c2ccc(Nc3ncc4c(n3)-c3ccc(Cl)cc3C(c3ccccc3F)=NC4)cc2)CC1 [Compound I-9, {4-[9-Chloro-7-(2-fluoro-phenyl)-5H-benzo[c]pyrimido[4,5-e]azepin-2-ylamino]-phenyl}-(4-methyl-piperazin-1-yl)-methanone]"
10,≤ 100 nM,"CNCCN(C)C(=O)c1ccc(Nc2ncc3c(n2)-c2ccc(Cl)cc2C(c2ccccc2F)=NC3)cc1 [Compound I-3, 4-[9-Chloro-7-(2-fluoro-phenyl)-5H-benzo[c]pyrimido[4,5-e]azepin-2-ylamino]-N-methyl-N-(2-methylamino-ethyl)-benzamide]"
11,≤ 100 nM,"NC1CCN(C(=O)c2ccc(Nc3ncc4c(n3)-c3ccc(Cl)cc3C(c3ccccc3F)=NC4)cc2)CC1 [Compound I-17, (4-Amino-piperidin-1-yl)-{4-[9-chloro-7-(2-fluoro-phenyl)-5H-benzo[c]pyrimido[4,5-e]azepin-2-ylamino]-phenyl}-methanone]"
12,≤ 100 nM,"Cc1ccccc1C1=NCc2cnc(Nc3ccc(C(=O)NCCCN4CCN(C)CC4)cc3)nc2-c2ccc(Cl)cc21 [Compound I-21, 4-(9-Chloro-7-o-tolyl-5H-benzo[c]pyrimido[4,5-e]azepin-2-ylamino)-N-[3-(4-methyl-piperazin-1-yl)-propyl]-benzamide]"
13,≤ 100 nM,"COc1cccc(F)c1C1=NCc2cnc(Nc3ccc(C(=O)N4CCC(N(C)C)C4)cc3)nc2-c2ccc(Cl)cc21 (stereo not shown) [Compound I-178, 9-Chloro-N-(4-{[3-(dimethylamino)pyrrolidin-1-yl]carbonyl}phenyl)-7-(2-fluoro-6-methoxyphenyl)-5H-pyrimido[5,4-d][2]benzazepin-2-amine]"
14,≤ 100 nM,COc1ccccc1C1=NCc2cnc(Nc3ccc(C(=O)N4CC(C)NC(C)C4)cc3)nc2-c2ccc(Cl)cc21 (stereo not shown) [Compound I-330]
15,≤ 100 nM,"CN(C)CCCN(C)C(=O)c1ccc(Nc2ncc3c(n2)-c2ccc(Cl)cc2C(c2ccccc2F)=NC3)cc1 [Compound I-7, 4-[9-Chloro-7-(2-fluoro-phenyl)-5H-benzo[c]pyrimido[4,5-e]azepin-2-ylamino]-N-(3-dimethylamino-propyl)-N-methyl-benzamide]"
16,≤ 100 nM,"COc1cccc(F)c1C1=NCc2cnc(Nc3cccc(C(=O)N4CC(C)NC(C)C4)c3)nc2-c2ccc(Cl)cc21 (stereo not shown) [Compound I-228, 9-chloro-N-{3-[(3,5-dimethylpiperazin-1-yl)carbonyl]phenyl}-7-(2-fluoro-6-methoxyphenyl)-5H-pyrimido[5,4-d][2]benzazepin-2-amine]"
17,≤ 100 nM,"CNC1CCN(C(=N)c2ccc(Nc3ncc4c(n3)-c3ccc(Cl)cc3C(c3c(F)cccc3F)=NC4)cc2)C1 (stereo not shown) [Compound I-268, 9-chloro-7-(2,6-difluorophenyl)-N-(4-{imino[3-(methylamino)pyrrolidin-1-yl]methyl}phenyl)-5H-pyrimido[5,4-d][2]benzazepin-2-amine]"
18,≤ 100 nM,"CN(C)C1CCN(C(=O)c2ccc(Nc3ncc4c(n3)-c3ccc(Cl)cc3C(c3ccccc3F)=NC4)cc2)C1 (stereo not shown) [Compound I-100, {4-[9-Chloro-7-(2-fluoro-phenyl)-5H-benzo[c]pyrimido[4,5-e]azepin-2-ylamino]-phenyl}-(3-dimethylamino-pyrrolidin-1-yl)-methanone]"
19,≤ 100 nM,"COc1cccc(F)c1C1=NCc2cnc(Nc3cccc(C(=O)N4CC(N(C)C)C4)c3)nc2-c2ccc(Cl)cc21 [Compound I-227, 9-chloro-N-(3-{[3-(dimethylamino)azetidin-1-yl]carbonyl}phenyl)-7-(2-fluoro-6-methoxyphenyl)-5H-pyrimido[5,4-d][2]benzazepin-2-amine]"
20,≤ 100 nM,"Cc1ccccc1C1=NCc2cnc(Nc3ccc(C(=O)O)cc3)nc2-c2ccc(Cl)cc21 [Compound I-54, 4-(9-Chloro-7-o-tolyl-5H-benzo[c]pyrimido[4,5-e]azepin-2-ylamino) -benzoic acid]"
21,≤ 100 nM,"N=C(NC(=O)c1ccc(Nc2ncc3c(n2)-c2ccc(Cl)cc2C(c2c(F)cccc2F)=NC3)cc1)N1CCNCC1 [Compound I-224, 4-{[9-chloro-7-(2,6-difluorophenyl)-5H-pyrimido[5,4-d][2]benzazepin-2-yl]amino}-N-[imino(piperazin-1-yl)methyl]benzamide]"
22,≤ 100 nM,"NCCCc1cccc(Nc2ncc3c(n2)-c2ccc(Cl)cc2C(c2c(F)cccc2F)=NC3)c1 [Compound I-373, N-[3-(3-aminopropyl)phenyl]-9-chloro-7-(2,6-difluorophenyl)-5H-pyrimido[5,4-d][2]benzazepin-2-amine]"

# Source: US9102678B2, “Compounds and methods for inhibiting mitotic progression” (Millennium Pharmaceuticals, Inc., priority 2004, dated 2015)
